{"source": "patent US12685312B2", "about": "“Sulfonamide apyrase inhibitors” (Texas Crop Science, Inc., priority 2022, dated 2026)"}
{"test_system": "apyrase", "assay": "Screen for apyrase inhibitors (Method 1, in vitro phosphate-release absorbance assay)", "format": "biochemical", "details": "inhibitor conc at 1 mM stock, 1 hr room temperature, absorbance 630 nm; rounded average of two assay results", "method": "Apyrase inhibitors useful as enhancers of pesticidal activity are assessed using an in vitro assay. The method of Windsor, Bio Techniques 33:1024-1030 (November 2002) was used as follows Screen for Apyrase Inhibitors- 96 well plates were used for the assay: (Greiner bio-one: REF-655901-96 well, PS, F-bottom, Clear, Non-binding) Buffers: • Reaction Buffer: 60 mM Hepes; 3 mM MgCl2, 3 mM CaCl2 and 3 mM ATP (pH 6.5) • Development Buffer A: 2% aqueous ammonium molybdate • Development Buffer B: 11% ascorbic acid in 37.5% TCA in water • Stop buffer C: 2% trisodium citrate in 2% acetic acid solution in water • Add 100 μl of reaction buffer to each well. • Add 10 μl of DMSO (control) or inhibitor/compound or compounds such as […] or orthovanadate to each well. […] A blank cell indicates either <10% observed inhibition or a large difference between repetitions. In certain examples, the lack of observed inhibition is due to a lack of solubility of the compound under assay conditions, rather than a lack of apyrase inhibitory activity.", "units": {"% Inhibition of Apyrase": "%"}}
{"smiles": "O=C(Nc1ccc(OC(F)F)cc1)c1ccccc1S(=O)(=O)Nc1cccc(C(F)(F)F)c1", "note": "[I-1, N-(4-(difluoromethoxy)phenyl)-2-(N-(3-(trifluoromethyl)phenyl)sulfamoyl)benzamide]", "% Inhibition of Apyrase": 84}
{"smiles": "O=C(Nc1cccc([N+](=O)[O-])c1)c1cccc(S(=O)(=O)Nc2cc(C(F)(F)F)ccc2Cl)c1", "note": "[I-3, 3-(N-(2-chloro-5-(trifluoromethyl)phenyl)sulfamoyl)-N-(3-nitrophenyl)benzamide]", "% Inhibition of Apyrase": 73}
{"smiles": "O=C(Nc1ccc(F)c([N+](=O)[O-])c1)c1ccc(S(=O)(=O)Nc2ccc(Cl)cc2)cc1", "note": "[I-4, 4-(N-(4-chlorophenyl)sulfamoyl)-N-(4-fluoro-3-nitrophenyl)benzamide]", "% Inhibition of Apyrase": 73}
{"smiles": "Cc1ccc(NS(=O)(=O)c2cc(C(=O)Nc3cccc([N+](=O)[O-])c3)ccc2C)cc1C", "note": "[I-5, 3-(N-(3,4-dimethylphenyl)sulfamoyl)-4-methyl-N-(3-nitrophenyl)benzamide]", "% Inhibition of Apyrase": 71}
{"smiles": "Cc1ccc(C(=O)Nc2ccc([N+](=O)[O-])cc2)cc1S(=O)(=O)Nc1ccc(Br)cc1", "note": "[I-6, 3-(N-(4-bromophenyl)sulfamoyl)-4-methyl-N-(4-nitrophenyl)benzamide]", "% Inhibition of Apyrase": 69}
{"smiles": "Cc1cccc(NC(=O)c2cccc(NS(=O)(=O)c3ccc(Cl)cc3)c2)c1", "note": "[I-7, 3-((4-chlorophenyl)sulfonamido)-N-(m-tolyl)benzamide]", "% Inhibition of Apyrase": 67}
{"smiles": "CC1CCc2c(sc(NC(=O)c3cccc(S(=O)(=O)Nc4ccc(Br)cc4)c3)c2C#N)C1", "note": "(stereo not shown) [I-9, 3-(N-(4-bromophenyl)sulfamoyl)-N-(3-cyano-6-methyl-4,5,6,7-tetrahydrobenzo[b]thiophen-2-yl)benzamide]", "% Inhibition of Apyrase": 61}
{"smiles": "Cc1c(NC(=O)c2cccc(S(=O)(=O)Nc3ccc4c(c3)OCO4)c2)cccc1[N+](=O)[O-]", "note": "[I-10, 3-(N-(benzo[d][1,3]dioxol-5-yl)sulfamoyl)-N-(2-methyl-3-nitrophenyl)benzamide]", "% Inhibition of Apyrase": 60}
{"smiles": "O=C(Nc1cccc([N+](=O)[O-])c1)c1cc(S(=O)(=O)Nc2cccc(F)c2)ccc1Cl", "note": "[I-11, 2-chloro-5-(N-(3-fluorophenyl)sulfamoyl)-N-(3-nitrophenyl)benzamide]", "% Inhibition of Apyrase": 60}
{"smiles": "Cn1cc(O)nc1NC(=O)c1cccc(S(=O)(=O)Nc2ccc(Br)cc2)c1", "note": "[I-12, 3-(N-(4-bromophenyl)sulfamoyl)-N-(4-hydroxy-1-methyl-1H-imidazol-2-yl)benzamide]", "% Inhibition of Apyrase": 59}
{"smiles": "O=C(c1cccc(S(=O)(=O)Nc2ccc(Br)cc2)c1)N1CCc2ccccc21", "note": "[I-13, N-(4-bromophenyl)-3-(indoline-1-carbonyl)benzenesulfonamide]", "% Inhibition of Apyrase": 59}
{"smiles": "Cc1ccc(S(=O)(=O)Nc2cccc(C(=O)Nc3cccc(C)c3)c2)cc1", "note": "[I-14, 3-((4-methylphenyl)sulfonamido)-N-(m-tolyl)benzamide]", "% Inhibition of Apyrase": 59}
{"smiles": "COc1ccc(C(=O)Nc2cccc(Cl)c2)cc1S(=O)(=O)Nc1ccc(Br)cc1", "note": "[I-15, 3-(N-(4-bromophenyl)sulfamoyl)-N-(3-chlorophenyl)-4-methoxybenzamide]", "% Inhibition of Apyrase": 55}
{"smiles": "NC(=O)OCCNC(=O)c1cccc(S(=O)(=O)Nc2ccc(Br)cc2)c1", "note": "[I-17, 2-(3-(N-(4-bromophenyl)sulfamoyl)benzamido)ethyl carbamate]", "% Inhibition of Apyrase": 52}
{"smiles": "O=C(Nc1cccc([N+](=O)[O-])c1)c1ccc(Br)c(S(=O)(=O)Nc2ccc(F)cc2)c1", "note": "[I-19, 4-bromo-3-(N-(4-fluorophenyl)sulfamoyl)-N-(3-nitrophenyl)benzamide]", "% Inhibition of Apyrase": 50}
{"smiles": "O=C(Nc1ccc(Br)cc1)c1cccc(S(=O)(=O)Nc2ccc(Br)cc2)c1", "note": "[I-20, N-(4-bromophenyl)-3-(N-(4-bromophenyl)sulfamoyl)benzamide]", "% Inhibition of Apyrase": 45}
{"smiles": "O=C(Nc1cccc([N+](=O)[O-])c1)c1cccc(S(=O)(=O)Nc2ccc(Cl)cc2)c1", "note": "[I-21, 3-(N-(4-chlorophenyl)sulfamoyl)-N-(3-nitrophenyl)benzamide]", "% Inhibition of Apyrase": 45}
{"smiles": "O=C(Nc1cccc([N+](=O)[O-])c1)c1ccc(Br)c(S(=O)(=O)Nc2ccc(Br)cc2)c1", "note": "[I-22, 4-bromo-3-(N-(4-bromophenyl)sulfamoyl)-N-(3-nitrophenyl)benzamide]", "% Inhibition of Apyrase": 38}
{"smiles": "O=C(Nc1cccc([N+](=O)[O-])c1)c1ccc(Br)c(S(=O)(=O)Nc2cccc(F)c2)c1", "note": "[I-23, 4-bromo-3-(N-(3-fluorophenyl)sulfamoyl)-N-(3-nitrophenyl)benzamide]", "% Inhibition of Apyrase": 30}
{"smiles": "O=C(Nc1ccc(Br)cc1)c1cccc(S(=O)(=O)Nc2cccc([N+](=O)[O-])c2)c1", "note": "[I-24, N-(4-bromophenyl)-3-(N-(3-nitrophenyl)sulfamoyl)benzamide]", "% Inhibition of Apyrase": 29}
{"smiles": "Cc1ccc([N+](=O)[O-])cc1NC(=O)c1ccc(Cl)c(S(=O)(=O)Nc2cccc(C)c2C)c1", "note": "[I-25, 4-chloro-3-(N-(2,3-dimethylphenyl)sulfamoyl)-N-(2-methyl-5-nitrophenyl)benzamide]", "% Inhibition of Apyrase": 28}
{"smiles": "COc1ccc(C(=O)Nc2ccc(F)c(F)c2)cc1S(=O)(=O)Nc1ccc(Br)cc1", "note": "[I-26, 3-(N-(4-bromophenyl)sulfamoyl)-N-(3,4-difluorophenyl)-4-methoxybenzamide]", "% Inhibition of Apyrase": 28}
{"smiles": "COc1ccc(NS(=O)(=O)c2cccc(NC(=O)c3cccc(-n4cccc4)c3)c2)cc1", "note": "[I-27, N-(3-(N-(4-methoxyphenyl)sulfamoyl)phenyl)-3-(1H-pyrrol-1-yl)benzamide]", "% Inhibition of Apyrase": 24}
{"smiles": "COc1ccc([N+](=O)[O-])cc1NC(=O)c1ccc(C)c(S(=O)(=O)Nc2ccccc2)c1", "note": "[I-28, N-(2-methoxy-5-nitrophenyl)-4-methyl-3-(N-phenylsulfamoyl)benzamide]", "% Inhibition of Apyrase": 23}
{"smiles": "CC(=O)c1cccc(NS(=O)(=O)c2cc(C(=O)Nc3cccc([N+](=O)[O-])c3)ccc2C)c1", "note": "[I-29, 3-(N-(3-acetylphenyl)sulfamoyl)-4-methyl-N-(3-nitrophenyl)benzamide]", "% Inhibition of Apyrase": 22}
{"smiles": "O=C(Nc1cccnc1)c1cccc(S(=O)(=O)Nc2cccc(C(F)(F)F)c2)c1", "note": "[I-30, N-(pyridin-3-yl)-3-(N-(3-(trifluoromethyl)phenyl)sulfamoyl)benzamide]", "% Inhibition of Apyrase": 21}
{"smiles": "O=C(Nc1cccc([N+](=O)[O-])c1)c1cccc(S(=O)(=O)Nc2ccc(F)cc2)c1", "note": "[I-31, 3-(N-(4-fluorophenyl)sulfamoyl)-N-(3-nitrophenyl)benzamide]", "% Inhibition of Apyrase": 21}
{"smiles": "O=C(Nc1cccc([N+](=O)[O-])c1)c1cccc(S(=O)(=O)Nc2cccc([N+](=O)[O-])c2)c1", "note": "[I-32, N-(3-nitrophenyl)-3-(N-(3-nitrophenyl)sulfamoyl)benzamide]", "% Inhibition of Apyrase": 21}
{"smiles": "COc1ccc(C(=O)Nc2ccc(Cl)cc2)cc1S(=O)(=O)Nc1ccc(Br)cc1", "note": "[I-33, 3-(N-(4-bromophenyl)sulfamoyl)-N-(4-chlorophenyl)-4-methoxybenzamide]", "% Inhibition of Apyrase": 19}
{"smiles": "O=C(Nc1cccc([N+](=O)[O-])c1)c1ccc(Br)c(S(=O)(=O)Nc2ccccc2)c1", "note": "[I-34, 4-bromo-N-(3-nitrophenyl)-3-(N-phenylsulfamoyl)benzamide]", "% Inhibition of Apyrase": 18}
{"smiles": "Cc1ccc(C(=O)Nc2cccc(C(=O)O)c2)cc1S(=O)(=O)Nc1ccc(Br)cc1", "note": "[I-35, 3-(3-(N-(4-bromophenyl)sulfamoyl)-4-methylbenzamido)benzoic acid]", "% Inhibition of Apyrase": 17}
{"smiles": "Cc1ccccc1NC(=O)c1cc(S(=O)(=O)Nc2ccc(Br)cc2)ccc1Cl", "note": "[I-36, 5-(N-(4-bromophenyl)sulfamoyl)-2-chloro-N-(o-tolyl)benzamide]", "% Inhibition of Apyrase": 16}
{"smiles": "O=C(Nc1cccc([N+](=O)[O-])c1)c1cccc(S(=O)(=O)N2CCc3ccccc32)c1", "note": "[I-38, 3-(indolin-1-ylsulfonyl)-N-(3-nitrophenyl)benzamide]", "% Inhibition of Apyrase": 14}
{"smiles": "Cc1c(NC(=O)c2ccc(Cl)c(S(=O)(=O)Nc3ccccc3)c2)cccc1[N+](=O)[O-]", "note": "[I-39, 4-chloro-N-(2-methyl-3-nitrophenyl)-3-(N-phenylsulfamoyl)benzamide]", "% Inhibition of Apyrase": 14}
{"smiles": "Cc1ccccc1NS(=O)(=O)c1cccc(C(=O)Nc2cccc([N+](=O)[O-])c2)c1", "note": "[I-40, N-(3-nitrophenyl)-3-(N-(o-tolyl)sulfamoyl)benzamide]", "% Inhibition of Apyrase": 14}
{"smiles": "COc1ccc([N+](=O)[O-])cc1NC(=O)c1cccc(S(=O)(=O)Nc2ccc(Cl)cc2)c1", "note": "[I-41, 3-(N-(4-chlorophenyl)sulfamoyl)-N-(2-methoxy-5-nitrophenyl)benzamide]", "% Inhibition of Apyrase": 13}
{"smiles": "O=C(NCCC1CCCO1)c1cccc(S(=O)(=O)Nc2ccc(Br)cc2)c1", "note": "(stereo not shown) [I-42, 3-(N-(4-bromophenyl)sulfamoyl)-N-(2-(tetrahydrofuran-2-yl)ethyl)benzamide]", "% Inhibition of Apyrase": 13}
{"smiles": "O=C(Nc1ccccc1)c1ccc(Cl)c(S(=O)(=O)Nc2ccc(Br)cc2)c1", "note": "[I-43, 3-(N-(4-bromophenyl)sulfamoyl)-4-chloro-N-phenylbenzamide]", "% Inhibition of Apyrase": 13}
{"smiles": "O=C(Nc1ccccc1[N+](=O)[O-])c1cc(S(=O)(=O)Nc2ccc(Br)cc2)ccc1Cl", "note": "[I-44, 5-(N-(4-bromophenyl)sulfamoyl)-2-chloro-N-(2-nitrophenyl)benzamide]", "% Inhibition of Apyrase": 13}
{"smiles": "Cc1ccc(C(=O)Nc2cccc([N+](=O)[O-])c2)cc1S(=O)(=O)Nc1ccc(C(=O)O)cc1", "note": "[I-45, 4-((2-methyl-5-((3-nitrophenyl)carbamoyl)phenyl)sulfonamido) benzoic acid]", "% Inhibition of Apyrase": 13}
